The text below walks through data of patent publication US20260176320A1, “MODULATORS OF G-PROTEIN COUPLED RECEPTORS” (priority 2018, published 2026).

Where two headings read alike, the source gives them in different places. Numbered stars: 1 amine (or outer) side, 2 acyl side, 3 side chain; on linkers, the order of the positions; unused ones are H or OH. Square brackets hold non-standard residues; d marks the D form. Side chains are listed from the residue outwards. Peptide text beside a SMILES is read from it. * marks the point of attachment. γGlu = O=C(O)[C@H](CCC(=O)[*:2])N[*:1]; X2 = O=C(CSCC(=O)*)NCCN1C(=O)CSC1=O; Palmitoyl = CCCCCCCCCCCCCCCC(=O)*; Aib = CC(C)(N)C(=O)O

In one test the target is GLP-1R (Homo sapiens, UniProt P43220). Nature of the test: HitHunter cAMP assay (GLP-1R). The conditions noted are these: cAMP; for Emax: read-out: (Emax) GLP-1R. It is filed as cell-based. Summed up:
(§1)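 cAMP, luminescence read: agonist 22-pt 2× dilution in DMSO, duplicate, 30 min RT on 10,000 cells/well in 1×HBSS/10 mM HEPES/625 μM IBMX/0.2% BSA; anti-cAMP reagent 1 h RT dark, then O/N RT dark before read.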
A general note: Changes in cAMP serve as a functional read-out for many G protein-coupled receptors.

In another test the target is T1, GIP-R (Homo sapiens, UniProt P48546).
T1 sequence (P48546 22-466): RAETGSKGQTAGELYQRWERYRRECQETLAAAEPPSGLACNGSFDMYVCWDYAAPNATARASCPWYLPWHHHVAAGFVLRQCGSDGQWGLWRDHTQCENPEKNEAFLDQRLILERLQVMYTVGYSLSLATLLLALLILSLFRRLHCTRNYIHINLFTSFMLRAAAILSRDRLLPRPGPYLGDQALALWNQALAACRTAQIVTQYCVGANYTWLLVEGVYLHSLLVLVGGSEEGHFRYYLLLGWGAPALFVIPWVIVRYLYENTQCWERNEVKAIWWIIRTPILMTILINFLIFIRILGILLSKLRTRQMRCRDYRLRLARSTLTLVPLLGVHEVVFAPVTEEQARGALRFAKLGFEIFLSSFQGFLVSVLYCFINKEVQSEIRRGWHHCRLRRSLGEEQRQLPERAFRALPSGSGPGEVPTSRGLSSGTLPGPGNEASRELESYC
Nature of the test: HitHunter cAMP assay (GIP-R). As to conditions: cAMP; for Emax: read-out: (Emax) GIP-R. The test is classed as cell-based. An outline of the steps:
as §1

The mark [1] stands for this setting: Table 3A, read-out: EC50 GLP-1R/nM.
[2] abbreviates: Table 3A, read-out: EC50 GIP-R/nM.

Sequence of GLP-1R (P43220 24-463): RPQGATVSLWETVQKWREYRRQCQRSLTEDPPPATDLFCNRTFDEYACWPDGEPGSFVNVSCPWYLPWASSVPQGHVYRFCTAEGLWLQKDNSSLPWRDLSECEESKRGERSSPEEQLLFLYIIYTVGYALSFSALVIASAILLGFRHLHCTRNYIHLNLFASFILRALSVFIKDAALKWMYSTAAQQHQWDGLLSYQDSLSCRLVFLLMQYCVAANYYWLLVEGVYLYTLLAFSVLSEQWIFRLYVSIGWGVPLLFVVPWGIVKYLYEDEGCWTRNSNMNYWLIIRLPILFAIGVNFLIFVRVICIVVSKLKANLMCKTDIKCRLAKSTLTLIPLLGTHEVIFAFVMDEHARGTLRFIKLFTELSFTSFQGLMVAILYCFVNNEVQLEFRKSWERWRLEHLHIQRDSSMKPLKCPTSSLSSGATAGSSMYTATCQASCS

The Emax is the greatest response seen or fitted, relative to the assay's reference. Take `CCCCCCCCCCCCCCCC(=O)N[C@@H](CCC(=O)NCCCC[C@H](NC(=O)[C@H](CO)NC(=O)[C@@H]1CCCN1C(=O)[C@@H]1CCCN1C(=O)[C@@H]1CCCN1C(=O)[C@H](C)NC(=O)CNC(=O)[C@H](CO)NC(=O)[C@H](CO)NC(=O)[C@@H]1CCCN1C(=O)CNC(=O)CNC(=O)[C@H](C)NC(=O)[C@H](CC(C)C)NC(=O)[C@H](CC(C)C)NC(=O)[C@H](Cc1c[nH]c2ccccc12)NC(=O)[C@H](CC(N)=O)NC(=O)[C@@H](NC(=O)[C@H](Cc1ccccc1)NC(=O)[C@H](CCC(=O)O)NC(=O)C(C)(C)NC(=O)[C@H](C)NC(=O)[C@H](C)NC(=O)[C@H](CCC(N)=O)NC(=O)[C@H](CCCCN)NC(=O)[C@H](CC(=O)O)NC(=O)[C@H](CC(C)C)NC(=O)[C@H](Cc1ccc(O)cc1)NC(=O)[C@@H](NC(=O)[C@H](CO)NC(=O)[C@H](Cc1ccc(O)cc1)NC(=O)[C@H](CC(=O)O)NC(=O)[C@H](CO)NC(=O)[C@@H](NC(=O)[C@H](Cc1ccccc1)NC(=O)[C@@H](NC(=O)CNC(=O)[C@H](CCC(=O)O)NC(=O)CSCC(=O)NCCN1C(=O)C2=C(CCCC2)C1=O)[C@@H](C)O)[C@@H](C)O)[C@@H](C)CC)C(C)C)C(N)=O)C(=O)O` [Compound 100]: the EC50 is 10 to 100 nM on GLP-1R (EC50 GLP-1R/nM, Table 3); 10 to 100 nM on GLP-1R (EC50 GLP-1R/nM, Table 3A); 1 to 10 nM on GIP-R (EC50 GIP-R/nM, Table 3); 1 to 10 nM on GIP-R (EC50 GIP-R/nM, Table 3A). Also, the Emax on GLP-1R (Table 3) is 95%; at GLP-1R (Table 3A) it was 95%; at GIP-R (Table 3) it was 100%; at GIP-R (Table 3A), 100%.
Take `CC[C@H](C)[C@H](NC(=O)[C@H](CO)NC(=O)[C@H](Cc1ccc(O)cc1)NC(=O)[C@H](CC(=O)O)NC(=O)[C@H](CO)NC(=O)[C@@H](NC(=O)[C@H](Cc1ccccc1)NC(=O)[C@@H](NC(=O)CNC(=O)[C@H](CCC(=O)O)NC(=O)CSCC(=O)NCCN1C(=O)CC(C)CC1=O)[C@@H](C)O)[C@@H](C)O)C(=O)N[C@@H](Cc1ccc(O)cc1)C(=O)N[C@@H](CC(C)C)C(=O)N[C@@H](CC(=O)O)C(=O)N[C@@H](CCCCN)C(=O)N[C@@H](CCC(N)=O)C(=O)N[C@@H](C)C(=O)N[C@@H](C)C(=O)NC(C)(C)C(=O)N[C@@H](CCC(=O)O)C(=O)N[C@@H](Cc1ccccc1)C(=O)N[C@H](C(=O)N[C@@H](CC(N)=O)C(=O)N[C@@H](Cc1c[nH]c2ccccc12)C(=O)N[C@@H](CC(C)C)C(=O)N[C@@H](CC(C)C)C(=O)N[C@@H](C)C(=O)NCC(=O)NCC(=O)N1CCC[C@H]1C(=O)N[C@@H](CO)C(=O)N[C@@H](CO)C(=O)NCC(=O)N[C@@H](C)C(=O)N1CCC[C@H]1C(=O)N1CCC[C@H]1C(=O)N1CCC[C@H]1C(=O)N[C@@H](CO)C(=O)N[C@@H](CCCCN)C(N)=O)C(C)C` [Compound 113]: the EC50 at GLP-1R (EC50 GLP-1R/nM, Table 3) fell in the range of 10 to 100 nM; on GLP-1R (EC50 GLP-1R/nM, Table 3A), 10 to 100 nM; at GIP-R (EC50 GIP-R/nM, Table 3) it was 10 to 100 nM; at GIP-R (EC50 GIP-R/nM, Table 3A) it was 10 to 100 nM. Further, the Emax on GLP-1R (Table 3) stood at 89%; on GLP-1R (Table 3A), 89%; at GIP-R (Table 3) it was 52%; on GIP-R (Table 3A) it was 52%.
For the molecule `CCCCCCCCCCCCCCCC(=O)N[C@@H](CCC(=O)NCCCC[C@H](NC(=O)[C@H](CO)NC(=O)[C@@H]1CCCN1C(=O)[C@@H]1CCCN1C(=O)[C@@H]1CCCN1C(=O)[C@H](C)NC(=O)CNC(=O)[C@H](CO)NC(=O)[C@H](CO)NC(=O)[C@@H]1CCCN1C(=O)CNC(=O)CNC(=O)[C@H](C)NC(=O)[C@H](CC(C)C)NC(=O)[C@H](CC(C)C)NC(=O)[C@H](Cc1c[nH]c2ccccc12)NC(=O)[C@H](CC(N)=O)NC(=O)[C@@H](NC(=O)[C@H](Cc1ccccc1)NC(=O)[C@H](CCC(=O)O)NC(=O)C(C)(C)NC(=O)[C@@H](NC(=O)[C@H](C)NC(=O)[C@H](CCC(N)=O)NC(=O)[C@H](CCCCN)NC(=O)[C@H](CC(=O)O)NC(=O)[C@H](CC(C)C)NC(=O)[C@H](Cc1ccc(O)cc1)NC(=O)[C@@H](NC(=O)[C@H](CO)NC(=O)[C@H](Cc1ccc(O)cc1)NC(=O)[C@H](CC(=O)O)NC(=O)[C@H](CO)NC(=O)[C@@H](NC(=O)[C@H](Cc1ccccc1)NC(=O)[C@@H](NC(=O)CNC(=O)[C@H](CCC(=O)O)NC(=O)CSCC(=O)NCCN1C(=O)CSC1=O)[C@@H](C)O)[C@@H](C)O)[C@@H](C)CC)C(C)C)C(C)C)C(N)=O)C(=O)O` [Compound 80] (X2-EGTFTSDYSIYLDKQAV[Aib]EFVNWLLAGGPSSGAPPPSK([γGlu-Palmitoyl])-NH2), the maximum response (Emax) on GLP-1R (Table 3) was 92%; on GLP-1R (Table 3A) it was 92%; at GIP-R (Table 3) it was 73%; at GIP-R (Table 3A), 73%. In addition, the EC50 lay within 0.1 to 1 nM at GLP-1R (Table 3, read-out: EC50 GLP-1R/nM); 0.1 to 1 nM on GLP-1R (setting [1]); 1 to 10 nM on GIP-R (Table 3, read-out: EC50 GIP-R/nM); 1 to 10 nM at GIP-R (setting [2]).
Turning to `CCCCCCCCCCCCCCCC(=O)N[C@@H](CCC(=O)NCCCC[C@H](NC(=O)[C@H](CO)NC(=O)[C@@H]1CCCN1C(=O)[C@@H]1CCCN1C(=O)[C@@H]1CCCN1C(=O)[C@H](C)NC(=O)CNC(=O)[C@H](CO)NC(=O)[C@H](CO)NC(=O)[C@@H]1CCCN1C(=O)CNC(=O)CNC(=O)[C@H](C)NC(=O)[C@H](CC(C)C)NC(=O)[C@H](CC(C)C)NC(=O)[C@H](Cc1c[nH]c2ccccc12)NC(=O)[C@H](CC(N)=O)NC(=O)[C@@H](NC(=O)[C@H](Cc1ccccc1)NC(=O)[C@H](CCC(=O)O)NC(=O)C(C)(C)NC(=O)[C@H](C)NC(=O)[C@H](C)NC(=O)[C@H](CCC(N)=O)NC(=O)[C@H](CCCCN)NC(=O)[C@H](CC(=O)O)NC(=O)[C@H](CC(C)C)NC(=O)[C@H](Cc1ccc(O)cc1)NC(=O)[C@@H](NC(=O)[C@H](CO)NC(=O)[C@H](Cc1ccc(O)cc1)NC(=O)[C@H](CC(=O)O)NC(=O)[C@H](CO)NC(=O)[C@@H](NC(=O)[C@H](Cc1ccccc1)NC(=O)[C@@H](NC(=O)CNC(=O)[C@H](CCC(=O)O)NC(=O)CSCC(=O)NCCN1C(=O)SC(C)C1=O)[C@@H](C)O)[C@@H](C)O)[C@@H](C)CC)C(C)C)C(N)=O)C(=O)O` (mixture of isomers) [Compound 90], the EC50 on GLP-1R (EC50 GLP-1R/nM, Table 3) was in the range of 1 to 10 nM; at GLP-1R (EC50 GLP-1R/nM, Table 3A), 1 to 10 nM; on GIP-R (EC50 GIP-R/nM, Table 3), 1 to 10 nM; at GIP-R (EC50 GIP-R/nM, Table 3A), 1 to 10 nM. In addition, the maximum response (Emax) at GLP-1R (Table 3) was found to be 108%; at GLP-1R (Table 3A), 108%; on GIP-R (Table 3) it was 74%; on GIP-R (Table 3A) it was 74%.
Consider `CCCCCCCCCCCCCCCC(=O)N[C@@H](CCC(=O)NCCCC[C@H](NC(=O)[C@H](CO)NC(=O)[C@@H]1CCCN1C(=O)[C@@H]1CCCN1C(=O)[C@@H]1CCCN1C(=O)[C@H](C)NC(=O)CNC(=O)[C@H](CO)NC(=O)[C@H](CO)NC(=O)[C@@H]1CCCN1C(=O)CNC(=O)CNC(=O)[C@H](C)NC(=O)[C@H](CC(C)C)NC(=O)[C@H](CC(C)C)NC(=O)[C@H](Cc1c[nH]c2ccccc12)NC(=O)[C@H](CC(N)=O)NC(=O)[C@@H](NC(=O)[C@H](Cc1ccccc1)NC(=O)[C@H](CCC(=O)O)NC(=O)C(C)(C)NC(=O)[C@H](C)NC(=O)[C@H](C)NC(=O)[C@H](CCC(N)=O)NC(=O)[C@H](CCCCN)NC(=O)[C@H](CC(=O)O)NC(=O)[C@H](CC(C)C)NC(=O)[C@H](Cc1ccc(O)cc1)NC(=O)[C@@H](NC(=O)[C@H](CO)NC(=O)[C@H](Cc1ccc(O)cc1)NC(=O)[C@H](CC(=O)O)NC(=O)[C@H](CO)NC(=O)[C@@H](NC(=O)[C@H](Cc1ccccc1)NC(=O)[C@@H](NC(=O)CNC(=O)[C@H](CCC(=O)O)NC(=O)CSCC(=O)NCCN1C(=O)CSC1=O)[C@@H](C)O)[C@@H](C)O)[C@@H](C)CC)C(C)C)C(=O)O)C(=O)O` [Compound 199], for which the Emax on GLP-1R (Table 3A) worked out at 92%; on GIP-R (Table 3A), 78%. In addition, the EC50 was 0.1 to 1 nM on GLP-1R (setting [1]) and 1 to 10 nM at GIP-R (setting [2]).
Turning to `CCCCCCCCCCCCCCCC(=O)N[C@@H](CCC(=O)NCCCC[C@H](NC(=O)[C@H](CO)NC(=O)[C@@H]1CCCN1C(=O)[C@@H]1CCCN1C(=O)[C@@H]1CCCN1C(=O)[C@H](C)NC(=O)CNC(=O)[C@H](CO)NC(=O)[C@H](CO)NC(=O)[C@@H]1CCCN1C(=O)CNC(=O)CNC(=O)[C@H](C)NC(=O)[C@H](CC(C)C)NC(=O)[C@H](CC(C)C)NC(=O)[C@H](Cc1c[nH]c2ccccc12)NC(=O)[C@H](CC(N)=O)NC(=O)[C@@H](NC(=O)[C@H](Cc1ccccc1)NC(=O)[C@H](CCC(=O)O)NC(=O)C(C)(C)NC(=O)[C@H](C)NC(=O)[C@H](C)NC(=O)[C@H](CCC(N)=O)NC(=O)[C@H](CCCCN)NC(=O)[C@H](CC(=O)O)NC(=O)[C@H](CC(C)C)NC(=O)[C@H](Cc1ccc(O)cc1)NC(=O)[C@@H](NC(=O)[C@H](CO)NC(=O)[C@H](Cc1ccc(O)cc1)NC(=O)[C@H](CC(=O)O)NC(=O)[C@H](CO)NC(=O)[C@@H](NC(=O)[C@H](Cc1ccccc1)NC(=O)[C@@H](NC(=O)CNC(=O)[C@H](CCC(=O)O)NC(=O)CSCC(=O)NCCN1C(=O)c2ccc(C)cc2C1=O)[C@@H](C)O)[C@@H](C)O)[C@@H](C)CC)C(C)C)C(N)=O)C(=O)O` [Compound 247], the EC50 on GLP-1R (EC50 GLP-1R/nM, Table 3A) is 0.1 to 1 nM; on GIP-R (EC50 GIP-R/nM, Table 3A), < 0.1 nM. Also, the Emax amounted to 102% at GLP-1R (Table 3A) and 110% on GIP-R (Table 3A).
